The Deep4Chem optical property database

Assay: solvent given as SMILES

Structure (SMILES): C=CCNS(=O)(=O)c1ccc2c(c1)C(=O)/C(=C1\Sc3ccc(S(=O)(=O)NCC=C)cc3C1=O)S2
- emission maximum (in CN(C)C=O): 604 nm
- emission maximum (in CS(C)=O): 625 nm

Structure (SMILES): CCn1c2cc(-c3ccc(-c4cccs4)s3)ccc2c2ccc(-c3ccc(-c4cccs4)s3)cc21
- emission maximum (in ClCCl): 447 nm

Structure (SMILES): CC1(C)c2ccccc2N(c2ccc(-c3nc(-c4ccccc4)cc(-c4ccccc4)n3)cc2)c2ccccc21
- emission maximum (in Cc1ccccc1): 454.83 nm

Structure (SMILES): N#Cc1cc(/C=C/c2ccc(N(c3ccccc3)c3ccccc3)cc2)ccc1-c1ccc(/C=C/c2ccc(N(c3ccccc3)c3ccccc3)cc2)cc1C#N
- emission maximum (in ClCCl): 472 nm

Structure (SMILES): COc1ccc(-c2c3ccccc3c(C#Cc3ccccc3)c3cc4cc(C)sc4cc23)cc1
- emission maximum (in ClCCl): 504 nm

Structure (SMILES): CC1=C(Cc2ccccc2)C(C)=[N+]2C1=C(C)c1c(C)c(-c3csc(N4CCOCC4)n3)c(C)n1[B-]2(F)F
- emission maximum (in C1CCOC1): 620 nm
- emission maximum (in C1COCCO1): 602 nm
- emission maximum (in CC#N): 537 nm
- emission maximum (in CC(C)O): 543 nm
- emission maximum (in CCO): 538 nm
- emission maximum (in CCOC(C)=O): 545 nm
- emission maximum (in CN(C)C=O): 537 nm
- emission maximum (in CO): 539 nm
- emission maximum (in CS(C)=O): 548 nm
- emission maximum (in Cc1ccccc1): 603 nm
- emission maximum (in ClC(Cl)Cl): 607 nm
- emission maximum (in ClCCl): 535 nm

Structure (SMILES): CON(OC)c1cc2c3cc(-c4c(C)cc(C)cc4C)cc4c5cc(-c6c(C)cc(C)cc6C)cc6c7cc(B(c8c(C)cc(C)cc8C)c8c(C)cc(C)cc8C)cc8c9cc(-c%10c(C)cc(C)cc%10C)cc%10c%11cc(-c%12c(C)cc(C)cc%12C)cc%12c(c1)c2c1c(c43)c(c65)c(c78)c(c9%10)c1c%11%12
- emission maximum (in C1CCOC1): 591 nm
- emission maximum (in CC(C)=O): 615 nm
- emission maximum (in CCCCCC): 490 nm
- emission maximum (in Cc1ccccc1): 510 nm
- emission maximum (in ClC(Cl)Cl): 545 nm
- emission maximum (in ClCCl): 585 nm

Structure (SMILES): CC1(C)OB(c2cc3ccc4cc(B5OC(C)(C)C(C)(C)O5)cc5ccc(c2)c3c45)OC1(C)C
- emission maximum (in Cc1ccccc1): 400 nm

Structure (SMILES): CCCC1(CCC)c2cc(-c3cccc(C)c3)ccc2-c2ccc(-c3cccc(C)c3)cc21
- emission maximum (in C1CCCCC1): 363 nm

Structure (SMILES): COC(=O)/C(C#N)=c1\s/c(=c2/s/c(=C(/C#N)C(=O)OC)c3cc(-c4ccc(OC)cc4)sc23)c2sc(-c3ccc(OC)cc3)cc12
- emission maximum (in Cc1ccccc1): 680 nm

Structure (SMILES): CCCCC(CC)Cn1c2cc(C#N)ccc2c2ccc(C#Cc3ccc4ccc5cccc6ccc3c4c56)cc21 (configuration not stated)
- emission maximum (in ClCCl): 420 nm

Structure (SMILES): CN(C)c1ccc2nc(-c3ccc(C=C(C#N)C#N)cc3)sc2c1
- emission maximum (in C1CCCCC1): 526 nm
- emission maximum (in ClC(Cl)Cl): 683 nm

Structure (SMILES): O=C(/C=C/c1ccc(O)c(O)c1)O[C@H](Cc1ccc(O)c(O)c1)C(=O)O
- emission maximum (in C1CCOC1): 397 nm
- emission maximum (in CC#N): 413 nm
- emission maximum (in CCCC#N): 406 nm
- emission maximum (in CCO): 417 nm
- emission maximum (in CN(C)C=O): 420 nm
- emission maximum (in CO): 432 nm
- emission maximum (in CS(C)=O): 432 nm
- emission maximum (in ClCCl): 396 nm
- emission maximum (in O): 444 nm

Structure (SMILES): Oc1ccc(C2=[N+]3C(=C(c4ccccc4)c4cccn4[B-]3(F)F)C=C2)cc1
- emission maximum (in ClC(Cl)Cl): 564 nm

Structure (SMILES): CCCCN1/C(=C/C=C/C2=[N+](C)c3ccccc3C2(C)C)C(C)(C)c2ccccc21
- emission maximum (in CS(C)=O): 565 nm

Structure (SMILES): CCCCCCc1cc(B(c2c(C)cc(C)cc2C)c2c(C)cc(C)cc2C)c(-c2sc(CCCCCC)cc2P(=O)(c2ccccc2)c2ccccc2)s1
- emission maximum (in CO): 605 nm

Structure (SMILES): Cc1ccc(C2=C3C=CC(c4ccccc4)=[N+]3[B-](F)(F)n3c(Cl)ccc32)cc1
- emission maximum (in C1CCCCC1): 553 nm
- emission maximum (in C1CCOC1): 555 nm
- emission maximum (in C1COCCO1): 554 nm
- emission maximum (in CCOC(C)=O): 551 nm
- emission maximum (in CO): 549 nm
- emission maximum (in Cc1ccccc1): 558 nm
- emission maximum (in ClC(Cl)Cl): 555 nm

Structure (SMILES): C(/C=C/Nc1ccccc1)=[NH+]c1ccccc1
- emission maximum (in CS(C)=O): 492 nm

Structure (SMILES): c1ccc2c(c1)CCc1ccccc1N2c1c2ccccc2cc2ccccc12
- emission maximum (in Cc1ccccc1): 507 nm

Structure (SMILES): Brc1cc2nc3cc4c5c(cccc5c3nc2cc1Br)C(c1ccccc1)=C(c1ccccc1)O4
- emission maximum (in ClCCl): 580 nm

Structure (SMILES): Cc1cc(C)c(C2=C3C=CC(c4ccccc4O)=[N+]3[B-]3(c4ccccc4)Oc4ccccc4-c4ccc2n43)c(C)c1 (configuration not stated)
- emission maximum (in ClC(Cl)Cl): 614 nm

Structure (SMILES): CCC1=C(C)C2=Cc3c(I)c(I)cn3[B-](F)(F)[N+]2=C1C
- emission maximum (in C1CCCCC1): 537 nm
- emission maximum (in CC(C)=O): 544 nm
- emission maximum (in CCO): 541.5 nm
- emission maximum (in CCOC(C)=O): 539.5 nm
- emission maximum (in CO): 541.5 nm
- emission maximum (in OCC(F)(F)F): 538 nm

Structure (SMILES): O=C(O)COc1cccc(-c2c3nc(cc4ccc([nH]4)c(-c4cccc(OCC(=O)O)c4)c4nc(cc5ccc2[nH]5)CC4)CC3)c1
- emission maximum (in CS(C)=O): 738 nm

Structure (SMILES): O=c1c2cc(C#Cc3ccc(Cl)cc3)ccc2nc2ccc(C#Cc3ccc(Cl)cc3)cn12
- emission maximum (in ClCCl): 478 nm

Structure (SMILES): Cc1cc(C)c(B2c3cc(C(C)(C)C)cc4ccc5ccc6cc(C(C)(C)C)cc2c6c5c34)c(C)c1
- emission maximum (in C1CCCCC1): 430 nm
